Laboratory results: patent US9724351B2, “Compounds for the treatment of paramoxyvirus viral infections” (priority 2012, dated 2017)

Legend:
[1] = test system: Respiratory Syncytial Virus (RSV) long strain (ATCC#VR-26); assay: RSV Antiviral Assay (CPE reduction assay); format: cell-based; details: human respiratory syncytial virus, 120 h; HEp-2 cells infected with RSV long strain, 5 days, CCK-8 readout; bins (Table 2: less than 1 μM; Table 3: equal to or higher than 1 μM and less than 50 μM); read-out: 50% effective concentration (EC50)
Description: CPE reduction assays are performed as described by Sidwell and Huffman et al., Appl. Microbiol. (1971) 22(5):797-801 with slight modifications. HEp-2 cells (ATCC#, CCL-23) are seeded at a density of 1,500 cells/30 μl/well into the 384-well cell plate(s) (Corning#3701) one day prior to the assay. Compounds are added into 384-well cell plates by Labcyte POD 810 Plate Assembler system. Each of the test compounds is provided to duplicate wells of a 384-well cell plate at final concentrations starting from 100 μM or 1 μM using ⅓ stepwise dilutions for 9 points. Quick-thaw Respiratory Syncytial Virus (RSV) long strain (ATCC#VR-26) stock in a 37° C. water bath. Place on ice until ready to use. Viruses are diluted to the concentration of 100 TCID50/30 μl with medium and 30 μl diluted RSV are added into related wells of 384-well cell plates. For each plate, sixteen wells are set aside as uninfected, untreated cell controls (CC), and nine wells per test plate receive virus only as a control for virus replication (VC). The final DMSO concentration of all wells is 1%. Place the plates at 37° C., 5% CO2 for 5 days.
After 5 days incubation, observe the CPE of cells in all wells. […] Six μl of cell counting kit-8 reagent (CCK-8, Dojindo Molecular Technologies Inc., CK04-20) are added to each well, which allows colorimetric assays to determine the number of viable cells through the dehydrogenase activity detection. After 3-4 hour incubation, the absorbance of each well is measured with a spectrophotometric plate reader at 450 nm wavelength, using a 630 nm filter as background according to manufacturer's instruction. The 50% effective concentration (EC50) is calculated by using regression analysis, based on the mean O.D. at each concentration of compound.

[2] = Cytotoxicity Determination; format: cell-based; details: human, HEp-2 cells, without addition of virus, CCK-8 readout, bins (Table 4: greater than 100 μM; Table 5: equal to or less than 100 μM and greater than 10 μM), read-out: 50% cytotoxicity concentration (CC50)
Description: In order to determine the compound cytotoxicity, in parallel, each of the compounds is applied to duplicate wells in a 384-well cell plate at serial final concentrations starting from 100 μM using ½ stepwise dilutions for 7 points without addition of virus. Incubate the cells at 37° C., 5% CO2 for 5 days. Add 6 μl CCK-8 into each well and incubate in a CO2 incubator at 37° C. for 3-4 hours. Read the plates to obtain the optical densities which are used to calculate 50% cytotoxicity concentration (CC50).

Row | Structure (SMILES) | EC50 [1] [µM] | CC50 at 5 days [2] [µM]
1 | CCOCC/C(=N\NC(=O)CNC(=O)c1ccc(OC)c(OC)c1)c1csc2ccccc12 [Compound 400-1] | < 1 | > 100
2 | CCOc1ccc(C(=O)NCC(=O)N/N=C(/CCOC)c2csc3c(F)cccc23)cc1OC [Compound 463B] | < 1 | > 100
3 | CCCn1nc(C(=O)CNC(=O)c2ccc(OC)c(OC)c2)nc1-c1csc2c(F)cccc12 [Compound 1205] | 1 to 50 | 10 to 100
4 | COc1cc(C(=O)NCC(=O)c2ccc(OC)c(-c3ccc(F)c(Cl)c3)n2)ccc1OCCN(C)C [Compound 1314] | 1 to 50 | 10 to 100
5 | COc1ccc(C(=O)NCC(=O)N/N=C(\CO)c2csc3ccccc23)cc1OC [Compound 442] | 1 to 50 | > 100
6 | COCCc1ccc(C(=O)NCC(=O)c2ccc(OC)c(-c3ccc(F)c(Cl)c3)n2)cc1OC [Compound 1331] | 1 to 50 | 10 to 100
7 | CCN(CC)c1ccc(C(=O)NCC(=O)N/N=C/c2csc3ccccc23)cc1 [Compound 235] | 1 to 50 | > 100
8 | CCc1cc(C(=O)CNC(=O)c2ccc(OCCO)c(OC)c2)nc(-c2csc3c(F)cccc23)c1 [Compound 1250] | < 1 | > 100
9 | CCN(CC)c1ccc(C(=O)NCC(=O)N/N=C(\C)c2csc3ccccc23)cc1 [Compound 469] | 1 to 50 | 10 to 100
10 | COc1ccc(C(=O)NCC(=O)N/N=C2\CCNc3ccccc32)cc1OC [Compound 447] | 1 to 50 | > 100
11 | CCCN(/N=C/c1csc2c(F)cccc12)C(=O)CNC(=O)c1ccc(OCCO)c(OC)c1 [Compound 2302] | < 1 | 10 to 100
12 | COc1ccc(C(=O)NCC(=O)N/N=C(\C)c2csc3ccc(O)cc23)cc1OC [Compound 400-8] | 1 to 50 | 10 to 100
13 | COc1cc(C(=O)NCC(=O)c2ccc(OC)c(C3=CS(=O)(=O)c4c(F)cccc43)n2)ccc1OCCO [Compound 1344] | 1 to 50 | 10 to 100
14 | COc1cc(C(=O)NCC(=O)N/N=C(/CC2CCCCC2)c2csc3c(F)cccc23)ccc1OCCO [Compound 606] | 1 to 50 | 10 to 100
15 | COc1ccc(C(=O)NCC(=O)c2ccc(OC)c(-c3ccc(Cl)cc3)n2)cc1OC [Compound 1525] | < 1 | > 100
16 | COc1ccc(C(=O)NCC(=O)N/N=C/c2csc3c(F)cccc23)cc1OC [Compound 490] | < 1 | > 100
17 | COc1ccc(C(=O)NCC(=O)N/N=C(\C)c2csc3ccccc23)cc1OC [Compound 411] | < 1 | 10 to 100
18 | COc1ccc(C(=O)NCC(=O)c2ccc(OC)c(-c3ccc4[nH]c(C)nc4c3)n2)cc1OC [Compound 1521] | 1 to 50 | 10 to 100
19 | COc1cc(C(=O)NCC(=O)N(C)/N=C/c2c(F)sc3c(F)cccc23)ccc1OCCO [Compound 2304] | 1 to 50 | 10 to 100
20 | C/C=C\c1cc(C(=O)CNC(=O)c2ccc(OC)c(OC)c2)nc(-c2csc3c(F)cccc23)c1 [Compound 1243] | 1 to 50 | > 100
21 | COc1ccc(C(=O)NCC(=O)N/N=C/c2cc3c(F)cccc3s2)cc1OC [Compound 400-2] | 1 to 50 | 10 to 100
22 | COCCOc1ccc(C(=O)NCC(=O)N/N=C(\CCOC)c2csc3c(F)cccc23)cc1OC [Compound 513] | < 1 | > 100
23 | COc1cc(C(=O)NCC(=O)c2cn(C(C)C)cc(-c3csc4c(F)cccc34)c2=O)ccc1OCCO [Compound 2200] | < 1 | > 100

Row | Structure (SMILES) | EC50 [1] [µM] | CC50 at 5 days [2] [µM]
24 | COc1ccc(C(=O)NCC(=O)c2cc(C(C)C)cc(-c3csc4c(F)cccc34)n2)cc1OC [Compound 1200] | < 1 | > 100
25 | COc1cc(NCCC(=O)N(C)/N=C/c2csc3c(F)cccc23)ccc1OCCO [Compound 2305] | 1 to 50 | 10 to 100
26 | CNc1cc(C(=O)CNC(=O)c2ccc(OC)c(OC)c2)nc(-c2csc3c(F)cccc23)c1 [Compound 1220] | < 1 | > 100
27 | COc1cc(C(=O)NCC(=O)c2cccc(-c3csc4c(F)cccc34)n2)ccc1OCCn1ccnc1 [Compound 1246] | 1 to 50 | 10 to 100
28 | COCc1ccc(C(=O)NCC(=O)c2ccc(OC)c(-c3ccc(F)c(Cl)c3)n2)cc1OC [Compound 1323] | < 1 | 10 to 100
29 | COc1ccc(C(=O)NCC(=O)c2ccc(N(C)C)c(-c3csc4c(F)cccc34)n2)cc1OC [Compound 2101] | 1 to 50 | > 100
30 | COc1cc(C(=O)NCC(=O)N(C)/N=C/c2c(C)sc3c(F)cccc23)ccc1OCCO [Compound 2300] | < 1 | 10 to 100
31 | COCC/C(=N/NC(=O)CNC(=O)c1ccc(OC)c(OC)c1)c1csc2ccccc12 [Compound 494] | < 1 | > 100
32 | COc1cc(C(=O)CNC(=O)c2ccc(OC)c(OC)c2)nc(-c2ccc(-c3c[nH]nn3)cc2)c1 [Compound 1405] | 1 to 50 | 10 to 100
33 | COc1cc(C(=O)N[C@@H](CO)C(=O)c2ccc(OC)c(-c3ccc(F)c(Cl)c3)n2)ccc1OCCO [Compound 1832] | < 1 | 10 to 100
34 | COc1ccc(C(=O)NCC(=O)N/N=C(\C)c2csc3ccc(F)cc23)cc1OC [Compound 422] | 1 to 50 | 10 to 100
35 | CCOc1ccc(C(=O)NCC(=O)N/N=C(\CCOC)c2csc3c(F)cccc23)cc1OC [Compound 463A] | < 1 | > 100
36 | COc1cc(C(=O)CNC(=O)c2ccc(OCCO)c(OC)c2)nc(-c2csc3c(F)cccc23)c1 [Compound 1213] | < 1 | > 100
37 | COc1cc(Cl)c(C(=O)NCC(=O)N/N=C(\C)c2csc3ccccc23)cc1OC [Compound 482] | 1 to 50 | 10 to 100
38 | CCC/C(=N\NC(=O)CNC(=O)c1ccc(OC)c(OC)c1)c1csc2ccccc12 [Compound 427] | < 1 | > 100
39 | CCOc1ccc(C(=O)NCC(=O)N/N=C/c2coc3c(F)cccc23)cc1OC [Compound 400-28] | 1 to 50 | > 100
40 | COc1ccc(C(=O)NCC(O)c2ccnc(-c3csc4c(F)cccc34)n2)cc1OC (stereo not drawn) [Compound 839, N-(2-(2-(7-fluorobenzo[b]thiophen-3-yl)pyrimidin-4-yl)-2-hydroxyethyl)-3,4-dimethoxy-benzamide] | 1 to 50 | > 100
41 | COc1ccc(C(=O)NCC(=O)c2ccc(OC)c(-c3ccc(F)cc3)n2)cc1OC [Compound 1515] | < 1 | > 100
42 | COc1ccc(C(=O)NCC(=O)N2CCCC(c3ccc(F)c4sccc34)=N2)cc1OC [Compound 3500] | < 1 | > 100
43 | COc1ccc(C(=O)NCC(=O)N2CCC(c3csc4c(F)cccc34)=N2)cc1OC [Compound 1100] | 1 to 50 | 10 to 100
44 | COc1ccc(C(=O)NCC(=O)N/N=C(\C)c2ccnc3ccccc23)cc1OC [Compound 449] | 1 to 50 | > 100
45 | COCCOc1ccc(C(=O)NCC(=O)c2ccc(OC)c(-c3ccc(F)c(Cl)c3)n2)cc1C [Compound 1317] | 1 to 50 | > 100
